Data: patent US7202244B2, “Chk-1 inhibitors” (Millennium Pharmaceuticals, Inc., priority 2002, dated 2007)

Tests used:
[1] = target: T1, GST-Chk1 (recombinant human Chk1) (Homo sapiens, UniProt O14757); experiment: Chk1 FlashPlate kinase assay; format: biochemical; details: 1 uM ATP
T1 construct: made in house; host or cells: insect cells (Bac-to-Bac baculovirus system)
T1 sequence (O14757 1-476): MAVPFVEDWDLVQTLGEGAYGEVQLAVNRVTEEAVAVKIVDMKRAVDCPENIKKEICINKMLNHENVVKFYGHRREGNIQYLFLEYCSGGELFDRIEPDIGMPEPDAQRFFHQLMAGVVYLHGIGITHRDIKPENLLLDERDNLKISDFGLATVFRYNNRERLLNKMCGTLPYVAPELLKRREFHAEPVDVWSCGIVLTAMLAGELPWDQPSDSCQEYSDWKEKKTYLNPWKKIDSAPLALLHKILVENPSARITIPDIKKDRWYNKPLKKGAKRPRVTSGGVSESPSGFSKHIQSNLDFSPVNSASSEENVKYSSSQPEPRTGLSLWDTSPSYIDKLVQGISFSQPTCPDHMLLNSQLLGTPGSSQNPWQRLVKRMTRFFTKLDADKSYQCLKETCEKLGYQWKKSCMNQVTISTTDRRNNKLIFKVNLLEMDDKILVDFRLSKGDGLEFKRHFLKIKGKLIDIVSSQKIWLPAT
Protocol: Recombinant human Chk1 was expressed as a fusion protein with glutathione S-transferase at the amino-terminus (GST-Chk1) using standard baculovirus vectors and (Bac-to-Bac®) insect cell expression system purchased from GIBCO™ Invitrogen. Recombinant protein expressed in insect cells was purified using glutathione sepharose (Amersham Biotech) using standard procedures described by the manufacturer.
Chk1 FlashPlate® Kinase Assay:
Reactions were incubated for 30 minutes at room temperature, terminated with 50 ul of 50 mM EDTA and 90 ul were transferred to streptavidin-coated FlashPlates® (NEN) and incubated for 1 hour at room temperature. Plates were washed with phosphate buffered salaine containing 0.01% Tween-20 and 10 mM sodium pyrophosphate. Plates were dried, sealed with Topseal™ (NEN) and amount of ^33P incorporated into the peptide substate measure using a Packard Topcount® NXT™ scintillation counter with standard settings.
Compounds of the present invention were tested in the Chk1 FlashPlate® kinase assay described above.

[2] = test system: HT29, HCT116 or other cells; experiment: WST assay: enhancement of cell killing by DNA damaging agents; format: cell-based; details: shift of 1 = no shift; for Shift 156 nM: Chk1 inhibitor fixed at 156 nM with DNA damaging agent titration; for Shift 313 nM: Chk1 inhibitor fixed at 313 nM with DNA damaging agent titration; for Shift 625 nM: Chk1 inhibitor fixed at 625 nM with DNA damaging agent titration; for Shift 1.25 μM: Chk1 inhibitor fixed at 1.25 μM with DNA damaging agent titration; for Shift 2.5 μM: Chk1 inhibitor fixed at 2.5 μM with DNA damaging agent titration
Protocol: HT29, HCT116 (5000 cells/well) or other cells were seeded (75 ul) to 96 well clear bottom plates at densities which provide linear growth curves for 72 hours. Cells were cultured under sterile conditions in appropriate media and for HT29 & HCT116 this media was McCoy's 5A containing 10% Fetal Bovine Serum (FBS). Following the initial seeding of cells they are incubated at 37° C., 5% CO2 from 17 to 24 hours at which time the appropriate DNA damaging agents (camptothecins, 5-fluorouracil and etoposid) are added at increasing concentrations to a point which is capable of causing at least 80% cell killing with in 48 hours. Final volume of all DNA damaging agent & compound additions was 25 ul and assays contained <1% DMSO final. At the same time as DNA Damaging agent addition, Chk1 inhibitor was added at fixed concentrations to each DNA damaging agent titration to observe enhancement of cell killing. In addition, toxicity of each Chk1 inhibitor alone was observed. By doing this over a range of Chk1 inhibitor concentrations we were able to identify compounds which maximally enhance (2–30 fold) cell killing by each DNA damaging agent and generated ≦80% cell killing by the compound alone. Cell viability/cell killing under the conditions described above was determined by addition WST reagent (Roche) according to the manufacturer at 47 hours following DNA damage & Chk1 inhibitor addition and following a 3.5 hour or 2.5 hour incubation at 37 C, 5% CO2, OD450 was measured.

[3] = target: T2, CHK-1 (Homo sapiens, UniProt O14757); experiment: IC50 for the test compound versus CHK-1 (Table 2, assay format not stated); format: biochemical
T2 sequence (O14757 1-476): T1 sequence (O14757 1-476)

CN(C)CCCOc1ccc(Cl)cc1NC(=O)Nc1cnccn1 [Example 1, 1-[5-Chloro-2-(3-dimethylamino-propoxy)-phenyl]-3-pyrazin-2-yl-urea]
IC50 [1]: < 100 nM
Shift 156 nM [2]: 1
Shift 313 nM [2]: 1.2
Shift 625 nM [2]: 1.6
Shift 1.25 μM [2]: 2.2
Shift 2.5 μM [2]: 3.4
IC50 [3]: 3.5 nM

CN(C)CCOc1ccc(Cl)cc1NC(=O)Nc1cnccn1 [Example 2, 1-[5-Chloro-2-(2-dimethylamino-ethoxy)-phenyl]-3-pyrazin-2-yl-urea]
IC50 [1]: < 100 nM
Shift 156 nM [2]: 1
Shift 313 nM [2]: 1.1
Shift 625 nM [2]: 1.5
Shift 1.25 μM [2]: 1.9
Shift 2.5 μM [2]: 2.6
IC50 [3]: 8 nM

Cc1cnc(NC(=O)Nc2cc(Cl)ccc2OCCCN(C)C)cn1 [Example 25, 1-[5-Chloro-2-(3-dimethylamino-propoxy)-phenyl]-3-(5-methyl-pyrazin-2-yl)-urea]
IC50 [1]: < 100 nM
Shift 156 nM [2]: 1.1
Shift 313 nM [2]: 1.7
Shift 625 nM [2]: 2.5
Shift 1.25 μM [2]: 3.3
Shift 2.5 μM [2]: 4.4
IC50 [3]: 4.5 nM
